The source of these data is PubChem BioAssay AID248 (DTP/NCI, 2004).

The test system of this experiment is L1210 leukemia ip in BDF1 mice, survival T/C. Kind of experiment: NCI In Vivo Anticancer Drug Screen. Data for tumor model L1210 Leukemia (intraperitoneal) in B6D2F1 (BDF1) mice. The settings on record: endpoint: mean survival time, higher = longer survival. In short, it runs like this: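 Value reflects the ratio of survival in compound-treated mice to survival in vehicle-treated controls, with both groups carrying the same transplanted tumor.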

Where [1] appears, read: dose: 100.0 mg/kg/injection, schedule: Q04DX003 (ip), vehicle: Klucel (hydroxypropylcellulose) (HPC).
The mark [2] stands for this setting: dose: 200.0 mg/kg/injection, schedule: Q04DX003 (ip), vehicle: Klucel (hydroxypropylcellulose) (HPC).
Setting [3] is: dose: 400.0 mg/kg/injection, schedule: Q04DX003 (ip), vehicle: Klucel (hydroxypropylcellulose) (HPC).
Where [4] appears, read: dose: 100.0 mg/kg/injection, schedule: Q01DX009 (ip), vehicle: Klucel (hydroxypropylcellulose) (HPC).
[5] abbreviates: dose: 200.0 mg/kg/injection, schedule: Q01DX009 (ip), vehicle: Klucel (hydroxypropylcellulose) (HPC).
[6] abbreviates: dose: 400.0 mg/kg/injection, schedule: Q01DX009 (ip), vehicle: Klucel (hydroxypropylcellulose) (HPC).

Where “and” joins values, the source holds several entries; their conditions need not be identical. Equal entries are not always repeated. Toxic doses and inconclusive results are not listed.

Take `CC(C)(C)C(=C=C=O)C#N`: the T/C reads like this: (dose: 100.0 mg/kg/injection, schedule: Q01DX001 (ip), vehicle: saline with Tween-80) 87 % of control; (dose: 200.0 mg/kg/injection, schedule: Q01DX001 (ip), vehicle: saline with Tween-80) 94 % of control; (dose: 400.0 mg/kg/injection, schedule: Q01DX001 (ip), vehicle: saline with Tween-80) 87 % of control.

In the case of `CCOC(=O)C(Cc1c[nH]c2ccccc12)C(=O)OCC`, the T/C under setting [1] is 96 % of control, the T/C under setting [2] is 94 % of control and the T/C under setting [3] was 98 % of control.

Consider `Cc1ccc(S(=O)(=O)OC2CCC(C(C)(C)C)CC2Cl)cc1` (stereo unspecified), for which the T/C under setting [4] was 98 % of control; the T/C (dose: 100.0 mg/kg/injection, schedule: Q04DX003 (ip), vehicle: saline) was 98 % of control; the T/C under setting [5] is 108 % of control; the T/C (dose: 200.0 mg/kg/injection, schedule: Q04DX003 (ip), vehicle: saline) is 98 % of control; the T/C under setting [6] was 98 % of control; the T/C (dose: 400.0 mg/kg/injection, schedule: Q04DX003 (ip), vehicle: saline) is 94 % of control.

With `COc1ccc(C(SCC(N)C(=O)O)(c2ccccc2)c2ccc(OC)cc2)cc1` (stereo unspecified), the T/C (dose: 3.13 mg/kg/injection, schedule: Q01DX009 (ip), vehicle: saline) is 98 % of control; the T/C (dose: 6.25 mg/kg/injection, schedule: Q01DX009 (ip), vehicle: saline) is 120 % of control; the T/C (dose: 6.3 mg/kg/injection, schedule: Q01DX009 (ip), vehicle: other) is 110 % of control; the T/C (dose: 12.5 mg/kg/injection, schedule: Q01DX009 (ip), vehicle: other) was 117 % of control; the T/C (dose: 25.0 mg/kg/injection, schedule: Q01DX009 (ip), vehicle: saline) was 158 % of control; the T/C (dose: 50.0 mg/kg/injection, schedule: Q01DX009 (ip), vehicle: saline) was 96 % of control.

As for `O=C(c1ccccc1)c1ccc(N2CCOCC2)cc1`, the T/C (dose: 100.0 mg/kg/injection, schedule: Q01DX001 (ip), vehicle: other) is 96 % of control; the T/C (dose: 200.0 mg/kg/injection, schedule: Q01DX001 (ip), vehicle: other) is 98 % of control; the T/C (dose: 400.0 mg/kg/injection, schedule: Q01DX001 (ip), vehicle: other) was 90 % of control.

Regarding `C#C/C=C/CC1OC(C(Br)CC)CC2OC1CC2Br` (stereo unspecified), the T/C is, setting by setting: (dose: 75.0 mg/kg/injection, schedule: Q01DX001 (ip), vehicle: carboxymethylcellulose (CMC)) 94 % of control; (dose: 150.0 mg/kg/injection, schedule: Q01DX001 (ip), vehicle: carboxymethylcellulose (CMC)) 96 % of control; (dose: 300.0 mg/kg/injection, schedule: Q01DX001 (ip), vehicle: carboxymethylcellulose (CMC)) 96 % of control.

Turning to `CCCCN(C=O)c1ccccc1`, the T/C by setting is: under setting [4], 108 % of control; under setting [1], 97 % of control; under setting [5], 104 % of control; under setting [2], 103 % of control; under setting [6], 87 % of control; under setting [3], 97 % of control.

`CC1(C)CC(OP(=O)(CCl)OC2CC(C)(C)N(O)C(C)(C)C2)CC(C)(C)N1O`: the T/C (dose: 100.0 mg/kg/injection, schedule: Q04DX002 (ip), vehicle: water) is 97 % of control and the T/C (dose: 200.0 mg/kg/injection, schedule: Q04DX002 (ip), vehicle: water) is 97 % of control.

For `CC12CC(O)C3C(CCC4CC(O)CCC43C)C1CCC2C(=O)CO` (stereo unspecified), the T/C was 102 % of control (dose: 100.0 mg/kg/injection, schedule: Q01DX001 (sc), vehicle: steriod suspending solution); 104 % of control (dose: 200.0 mg/kg/injection, schedule: Q01DX001 (sc), vehicle: steriod suspending solution); 102 % of control (dose: 400.0 mg/kg/injection, schedule: Q01DX001 (sc), vehicle: steriod suspending solution).

With `CC(C)C(=O)CC(=O)C(C)C.CC(C)C(=O)CC(=O)C(C)C.[Cu]`, the T/C was 93 % of control (dose: 12.0 mg/kg/injection, schedule: Q01DX001 (ip), vehicle: saline); 90 % of control (dose: 12.0 mg/kg/injection, schedule: Q04DX003 (ip), vehicle: saline); 98 % of control (dose: 25.0 mg/kg/injection, schedule: Q01DX001 (ip), vehicle: saline); 98 % of control (dose: 25.0 mg/kg/injection, schedule: Q04DX003 (ip), vehicle: saline); 98 % of control (dose: 50.0 mg/kg/injection, schedule: Q01DX001 (ip), vehicle: saline); 96 % of control (dose: 50.0 mg/kg/injection, schedule: Q04DX003 (ip), vehicle: saline).

On to `O=C1OC(c2ccc(Cl)cc2)=N/C1=C\c1c(Cl)cccc1Cl`, for which the T/C is, setting by setting: (dose: 100.0 mg/kg/injection, schedule: Q04DX002 (ip), vehicle: saline) 93 % of control; (dose: 200.0 mg/kg/injection, schedule: Q04DX002 (ip), vehicle: saline) 107 % of control; (dose: 400.0 mg/kg/injection, schedule: Q04DX002 (ip), vehicle: saline) 118 % of control.

For the compound `CCCCCCCCP(=O)(N1CC1)N1CC1`, the T/C was 107 % of control (dose: 5.0 mg/kg/injection, schedule: Q01DX Z (ip), vehicle: carboxymethylcellulose (CMC)); 98 % of control (dose: 6.25 mg/kg/injection, schedule: Q01DX Z (ip), vehicle: carboxymethylcellulose (CMC)); 102 % of control (dose: 10.0 mg/kg/injection, schedule: Q01DX Z (ip), vehicle: carboxymethylcellulose (CMC)); 110 % of control (dose: 12.5 mg/kg/injection, schedule: Q01DX Z (ip), vehicle: carboxymethylcellulose (CMC)); 110 % of control (dose: 20.0 mg/kg/injection, schedule: Q01DX Z (ip), vehicle: carboxymethylcellulose (CMC)); 113 % of control (dose: 25.0 mg/kg/injection, schedule: Q01DX Z (ip), vehicle: carboxymethylcellulose (CMC)). Moreover, the T/C (dose: 40.0 mg/kg/injection, schedule: Q01DX Z (ip), vehicle: carboxymethylcellulose (CMC)) was 117 % of control and the T/C (dose: 50.0 mg/kg/injection, schedule: Q01DX Z (ip), vehicle: carboxymethylcellulose (CMC)) was 120 % of control.

Consider `CS(=O)(=O)N(CC(=O)O)Cc1ccc(Cl)cc1`, for which the T/C reads like this: (dose: 100.0 mg/kg/injection, schedule: Q04DX003 (ip), vehicle: other) 102 % of control; (dose: 200.0 mg/kg/injection, schedule: Q04DX003 (ip), vehicle: other) 105 % of control; (dose: 400.0 mg/kg/injection, schedule: Q04DX003 (ip), vehicle: other) 98 % of control.

In the case of `CCOC(=O)C1CCCCN1` (stereo unspecified), the T/C runs as follows: (dose: 75.0 mg/kg/injection, schedule: Q01DX001 (ip), vehicle: saline) 91 % of control; (dose: 150.0 mg/kg/injection, schedule: Q01DX001 (ip), vehicle: saline) 91 % of control.

For the compound `C[N+](C)(C)N1C(=O)C2C3c4ccccc4C(C2C1=O)[n+]1ccccc13` (stereo unspecified), the T/C is 86 % of control (dose: 9.38 mg/kg/injection, schedule: Q01DX001 (ip), vehicle: other) and 105 % of control (dose: 18.75 mg/kg/injection, schedule: Q01DX001 (ip), vehicle: other).

Regarding `COc1ccc(C2CCCN(C)O2)cc1` (stereo unspecified), the T/C runs as follows: (dose: 100.0 mg/kg/injection, schedule: Q01DX001 (ip), vehicle: acetone) 102 % of control; (dose: 200.0 mg/kg/injection, schedule: Q01DX001 (ip), vehicle: acetone) 91 % of control; (dose: 400.0 mg/kg/injection, schedule: Q01DX001 (ip), vehicle: acetone) 98 % of control.

`CCC(=O)C1(c2ccccc2)CCNCC1`: the T/C is 102 % of control (dose: 25.0 mg/kg/injection, schedule: Q01DX009 (ip), vehicle: Klucel (hydroxypropylcellulose) (HPC)); 106 % of control (dose: 50.0 mg/kg/injection, schedule: Q01DX009 (ip), vehicle: Klucel (hydroxypropylcellulose) (HPC)); 98 % of control and 118 % of control under setting [4]; 106 % of control (dose: 200.0 mg/kg/injection, schedule: Q04DX002 (ip), vehicle: Klucel (hydroxypropylcellulose) (HPC)).
